Test [1] concerns maize varieties (Cecilia and Abraxas). Nature of the test: Shoot growth regulation: glasshouse pot trial, plant height of 2 maize varieties. The following applies: for Mean plant height per pot, Mean of 8 replicates / Mean plant height per pot, single replicate: 25 days after sowing. The format is in vivo. Here is the method:
Three cyprosulfamide treatment methods (1 to 3) were used in a trial designed to investigate effects on shoot development. Treatment method 1 was a seed treatment. For this, fifty seeds each of two maize varieties ([…] and Abraxas) were weighed and placed into each of 50 ml glass screw cap bottles. To one of these bottles sufficient wettable powder formulation of cyprosulfamide (20% formulation) was added to provide 1 g of cyprosulfamide per 1000 g of seed. To the second bottle the same amount of a blank formulation (same components but lacking cyprosulfamide) was added. To each bottle 10 ml of deionised water was added the caps fitted. The bottles were then placed on a shaker for 20 minutes so that the seeds were evenly coated with the formulation. For methods 2 and 3, 240 peat pots (7 cm diameter) were filled to within 3 cm of the top with steam sterilised sandy-loam soil (20% sand, 57% silt, 23% clay, pH 6.8 and 1.4% organic matter). In addition, 120 Petri dishes (10 cm diameter) were filled (1 cm depth) with the same soil. The 20% wettable powder formulation of cyprosulfamide was dispersed in de-ionised water to produce the required concentration (ppm). 120 pots (Treatment 2) and the all 120 Petri dishes (Treatment 3) were placed on “feed-belt” of a track-sprayer. The spray solution of cyprosulfamide was placed into the spray vessel and applied to the target pots/dishes at a spray volume of 300 l/ha via a flat fan nozzle. This provided a dose rate equivalent to 1000 g of cyprosulfamide per hectare soil surface. For treatment method 1, five treated maize seed were sown onto 8 replicate untreated pots and covered with untreated soil. For treatment method 2, five untreated seeds were sown onto 8 replicate treated pots and covered with untreated soil. For treatment method 3, five untreated seeds were sown onto 8 replicate untreated pots and covered using the treated soil from the Petri dishes. Control (Treatment 4) had also untreated seeds on untreated soil. The placement of cyprosulfamide as a result of these treatment methods is shown in FIG. 1 All the pots were watered and placed in a glasshouse set to 24° C.±2° C. day and 17° C.±2° C. night. The relative humidity was normally above 60%. High-pressure mercury lamps (400 W) were used to augment daylight during cloudy conditions. Pots were watered as required. 25 days after sowing the height of each plant was measured from soil surface to tip of tallest leaf which was held up against a ruler.

Test [2] concerns maize (Zea mays—variety Oldham). Nature of the test: Root growth promotion: maize germination in a soil free test system. The format is in vivo. The note with it: for Fresh weight of harvested roots, Mean of 4 replicates / Fresh weight of harvested roots, single replicate: 13 days after sowing, Blank WP mean 317; for Fresh weight of harvested roots, single replicate: roots of 10 seeds per container. Here is the method:
8 cm round filter papers were placed in 9.5 cm square clear plastic tissue culture containers (ICN Biomedicals, Inc). The paper in each of 4 containers were wetted with 2 ml of tap water containing 2500, 1250 or 625 ppm of cyprosulfamide provided as a 20% wettable powder formulation (WP). 4 further containers were wetted with tap water containing blank WP formulation (i.e. all components except cyprosulfamide). Into each Petri dish 10 seeds of maize (Zea mays—variety Oldham) were evenly spread and the lids put in place. The Petri dishes were placed in glasshouse set to 24° C.±2° C. day and 17° C.±2° C. night. High-pressure mercury lamps (400 W) were used to augment daylight during cloudy conditions. As required, small volumes of water were added to the Petri dishes as necessary to keep the filter paper moist. After 13 days the roots from all seeds per container were harvested by cutting as close to the base as possible. The fresh weight of roots was measured immediately.

[3] abbreviates: variety Abraxas, treatment 1 = seed treatment, 1 g per 1000 g seed, untreated mean 36.0.
Setting [4] is: variety Abraxas, treatment 2 = soil below seed, 1000 g per hectare, untreated mean 36.0.
[5] abbreviates: variety Abraxas, treatment 3 = soil above seed, 1000 g per hectare, untreated mean 36.0.
The mark [6] stands for this setting: variety Cecilia, treatment 1 = seed treatment, 1 g per 1000 g seed, untreated mean 55.3.
The mark [7] stands for this setting: variety Cecilia, treatment 2 = soil below seed, 1000 g per hectare, untreated mean 55.3.
[8] abbreviates: variety Cecilia, treatment 3 = soil above seed, 1000 g per hectare, untreated mean 55.3.

Several values for one entry are separate records, joined by “and”; a condition that tells them apart may be missing. Identical values can stand only once.

Turning to `COc1ccccc1C(=O)NS(=O)(=O)c1ccc(C(=O)NC2CC2)cc1` [cyprosulfamide], the “effect on plant height (statistical analysis)” value in test [1] (all treatments (1 to 3) versus untreated, in Cecilia and Abraxas) was “significantly reduced plant height”. The “Mean plant height per pot, Mean of 8 replicates” value was 26.3 cm in test [1] (setting [3]); 33.4 cm in test [1] (setting [4]); 30.4 cm in test [1] (setting [5]); 41.2 cm in test [1] (setting [6]); 44.4 cm in test [1] (setting [7]); 47.8 cm in test [1] (setting [8]). In addition, the “Mean plant height per pot, single replicate” value is 28.2 cm and 20.8 cm and 31.6 cm and 22.6 cm and 25.2 cm and 22.2 cm and 28.8 cm and 30.6 cm in test [1] (setting [3]); 34.2 cm and 34.5 cm and 34.4 cm and 33.4 cm and 32.2 cm and 33.6 cm and 30.5 cm and 34.6 cm in test [1] (setting [4]); 25.2 cm and 26.6 cm and 29.6 cm and 32.2 cm (2×) and 31.4 cm and 32.8 cm and 33.0 cm in test [1] (setting [5]); 34.3 cm and 40.7 cm and 50.0 cm and 38.3 cm and 39.3 cm and 44.0 cm and 41.0 cm and 41.7 cm in test [1] (setting [6]); 46.0 cm (2×) and 50.0 cm and 48.2 cm and 42.8 cm and 41.7 cm and 40.6 cm and 40.3 cm in test [1] (setting [7]); 43.0 cm and 54.0 cm and 47.6 cm and 47.0 cm and 55.5 cm and 58.0 cm and 36.8 cm and 40.8 cm in test [1] (setting [8]). Also, the “Fresh weight of harvested roots, Mean of 4 replicates” value in test [2] (WP + 625 ppm a.i.) came out at 620 mg; in test [2] (WP + 1250 ppm a.i.), 838 mg; in test [2] (WP + 2500 ppm a.i.) it was 778 mg. Moreover, the “Fresh weight of harvested roots, single replicate” value in test [2] (WP + 625 ppm a.i.) was 587 mg and 579 mg and 547 mg and 767 mg; in test [2] (WP + 1250 ppm a.i.), 700 mg and 717 mg and 846 mg and 1087 mg; in test [2] (WP + 2500 ppm a.i.), 918 mg and 1211 mg and 634 mg and 350 mg. Also, in test [2] (in the presence of cyprosulfamide (625-2500 ppm) versus blank WP), the “root development of germinating maize seed” value is recorded as “significantly enhanced”.
